Measured values taken from ChEMBL document CHEMBL4020715, “Structure-activity relationship study of vitamin D analogs with oxolane group in their side chain” (Eur J Med Chem, 2017).
Active and inactive are the calls of the source. The calls are words filed in the database; no cut-off is given here.

Tests used:
Type in all cases: cell-based
[1] = target: T1, Vitamin D3 receptor A (Danio rerio) (UniProt Q9PTN2); assay: Agonist activity at zebrafish VDR LBD (156 to 453 residues) expressed in HEK293 EBNA cells harboring human CYP24-Tk-Luc plasmid assessed as induction of CYP24a1 gene at 1000 nM after 18 hrs by dual-luciferase transcriptional reporter gene assay relative to control
T1 sequence (whole entry): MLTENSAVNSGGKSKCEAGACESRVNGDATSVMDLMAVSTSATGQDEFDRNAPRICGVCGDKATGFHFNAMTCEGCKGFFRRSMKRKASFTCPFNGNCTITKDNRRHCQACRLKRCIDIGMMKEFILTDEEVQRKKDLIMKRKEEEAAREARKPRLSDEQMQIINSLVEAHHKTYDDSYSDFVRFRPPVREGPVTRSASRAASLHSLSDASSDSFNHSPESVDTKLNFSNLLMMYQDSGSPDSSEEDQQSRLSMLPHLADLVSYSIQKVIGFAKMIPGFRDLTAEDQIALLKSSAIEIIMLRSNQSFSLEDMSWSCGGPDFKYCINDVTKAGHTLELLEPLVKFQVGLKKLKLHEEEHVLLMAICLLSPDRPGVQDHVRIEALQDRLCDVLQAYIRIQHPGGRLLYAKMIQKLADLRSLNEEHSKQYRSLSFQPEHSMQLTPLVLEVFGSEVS

[2] = target: T1, Vitamin D3 receptor A (Danio rerio); assay: Agonist activity at zebrafish VDR LBD (156 to 453 residues) expressed in HEK293 EBNA cells harboring human CYP24-Tk-Luc plasmid assessed as induction of CYP24a1 gene at 0.1 nM after 18 hrs by dual-luciferase transcriptional reporter gene assay
Vitamin D3 receptor A = target: T2, Vitamin D3 receptor A (Danio rerio, UniProt Q9PTN2); assay: Agonist activity at zebrafish VDR LBD (156 to 453 residues) expressed in HEK293 EBNA cells harboring human CYP24-Tk-Luc plasmid assessed as induction of CYP24a1 gene after 18 hrs by dual-luciferase transcriptional reporter gene assay
T2 sequence (Q9PTN2 whole entry): T1 sequence (whole entry)

[3] = target: T3, Vitamin D3 receptor (Homo sapiens) (UniProt P11473); assay: Agonist activity at VP16-fused human full length VDR expressed in COS7 cells assessed as corepressor Gal4 DBD-fused SMRT NRID release at 10 to 1000 nM after 48 hrs by luciferase reporter gene assay based mammalian two-hybrid assay
T3 sequence (whole entry): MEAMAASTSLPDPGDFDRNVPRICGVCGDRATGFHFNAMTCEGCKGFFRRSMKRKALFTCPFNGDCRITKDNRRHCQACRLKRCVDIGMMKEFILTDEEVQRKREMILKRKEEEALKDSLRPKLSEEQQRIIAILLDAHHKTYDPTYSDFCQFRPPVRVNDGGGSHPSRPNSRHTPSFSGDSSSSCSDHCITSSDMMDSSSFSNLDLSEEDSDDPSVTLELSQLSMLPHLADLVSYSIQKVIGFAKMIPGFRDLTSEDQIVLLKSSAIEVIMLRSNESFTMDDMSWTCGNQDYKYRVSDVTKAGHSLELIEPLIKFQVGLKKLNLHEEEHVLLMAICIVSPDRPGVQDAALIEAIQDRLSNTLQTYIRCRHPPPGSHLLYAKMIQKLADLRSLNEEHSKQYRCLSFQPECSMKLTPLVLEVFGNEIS

[4] = target: T3, Vitamin D3 receptor (Homo sapiens); assay: Agonist activity at VP16-fused human full length VDR expressed in COS7 cells assessed as corepressor Gal4 DBD-fused NCOR NRID release at 10 to 1000 nM after 48 hrs by luciferase reporter gene assay based mammalian two-hybrid assay
[5] = target: T1, Vitamin D3 receptor A (Danio rerio); assay: Agonist activity at zebrafish VDR LBD (156 to 453 residues) expressed in HEK293 EBNA cells harboring human CYP24-Tk-Luc plasmid assessed as induction of CYP24a1 gene at 100 nM after 18 hrs by dual-luciferase transcriptional reporter gene assay

Efficacy [1] [%]	Activity [2]	EC50 (Vitamin D3 receptor A) [nM]	Activity [3]	Activity [4]	Activity [5]	Structure (SMILES)
90	–	> 100	Active	Active	Active	C=C1/C(=C\C=C2/CCC[C@]3(C)[C@@H]([C@H](C)[C@@H]4CC[C@@H](C(C)(C)O)O4)CC[C@@H]23)C[C@@H](O)C[C@H]1O
47	–	> 100	Active	Active	–	C=C1/C(=C\C=C2/CCC[C@]3(C)[C@@H]([C@H](C)[C@@H]4CC[C@H](C(C)(C)O)O4)CC[C@@H]23)C[C@@H](O)C[C@H]1O
100	–	> 100	Active	Active	–	C=C1/C(=C\C=C2/CCC[C@]3(C)[C@@H]([C@H](C)[C@H]4CC[C@@H](C(C)(C)O)O4)CC[C@@H]23)C[C@@H](O)C[C@H]1O

The remaining lines, values behind:

Structure (SMILES)	Efficacy [1] [%]	Activity [2]	EC50 (Vitamin D3 receptor A) [nM]	Activity [3]	Activity [4]	Activity [5]
C=C1/C(=C\C=C2/CCC[C@]3(C)[C@@H]([C@H](C)CCCC(C)(C)O)CC[C@@H]23)C[C@@H](O)C[C@H]1O	100	–	–	–	–	–
C=C1/C(=C\C=C2/CCC[C@@]3(C)[C@H]2CC[C@@H]3[C@]2(C)C[C@@H](CC(C)(C)O)CO2)C[C@@H](O)C[C@@H]1O	–	Active	–	–	–	–
